Experimental findings from patent publication US4451450A, “Cationic compounds useful for making radiodiagnostic agents” (New England Nuclear Corporation, priority 1981, dated 1984) are described below.

The test concerns Rabbit Heart. Briefly: Imaging of rabbit heart (scintillation camera, intravenous injection). The following applies: 2 mCi i.v., 2.5 Kg male New Zealand Albino rabbit, approximately 10 minutes after injection. It counts as in vivo. On the procedure: 2 mCi of Thallium-201 (as thallous chloride in physiological saline containing 0.9% benzyl alcohol) is injected intravenously into a 2.5 Kg male New Zealand Albino rabbit. The rabbit is positioned under a Searle Pho-Gamma scintillation camera in such a way that the heart and lung area are covered by the field of view.
Greater than 1 mCi of the ^99m Tc-labelled product of Example 3 is injected into a rabbit and imaged as in Example 16.

Consider Thallium-201, for which the “image of the heart (reference Tl-201)” value was “sufficient counts are accumulated to produce an image of the heart analogous to that seen in clinical studies of humans”.
